The source made the active and inactive calls. The rule behind the calls is not given here.
Experiments:
[1] = target: T1, Adrenergic receptor alpha-2 (Rattus norvegicus, UniProt P22086+P19328+P22909); assay: Binding affinity against alpha-2 adrenergic receptor by measuring displacement of [3H]clonidine from rat brain cortex membranes (in vitro).; format: cell membranes, Membrane
T1 sequence (P22086 whole entry): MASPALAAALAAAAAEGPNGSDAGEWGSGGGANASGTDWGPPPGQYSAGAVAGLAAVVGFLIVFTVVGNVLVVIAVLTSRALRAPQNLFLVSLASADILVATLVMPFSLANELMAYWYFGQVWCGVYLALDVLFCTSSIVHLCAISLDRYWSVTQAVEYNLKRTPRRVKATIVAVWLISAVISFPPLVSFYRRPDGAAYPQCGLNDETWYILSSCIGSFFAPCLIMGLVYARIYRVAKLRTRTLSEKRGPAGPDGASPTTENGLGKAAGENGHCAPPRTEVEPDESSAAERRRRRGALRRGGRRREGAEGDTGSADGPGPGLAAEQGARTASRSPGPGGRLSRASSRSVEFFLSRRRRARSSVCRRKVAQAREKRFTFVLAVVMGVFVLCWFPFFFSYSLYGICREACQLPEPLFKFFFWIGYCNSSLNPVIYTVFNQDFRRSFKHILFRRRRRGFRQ
T1 sequence (P19328 whole entry): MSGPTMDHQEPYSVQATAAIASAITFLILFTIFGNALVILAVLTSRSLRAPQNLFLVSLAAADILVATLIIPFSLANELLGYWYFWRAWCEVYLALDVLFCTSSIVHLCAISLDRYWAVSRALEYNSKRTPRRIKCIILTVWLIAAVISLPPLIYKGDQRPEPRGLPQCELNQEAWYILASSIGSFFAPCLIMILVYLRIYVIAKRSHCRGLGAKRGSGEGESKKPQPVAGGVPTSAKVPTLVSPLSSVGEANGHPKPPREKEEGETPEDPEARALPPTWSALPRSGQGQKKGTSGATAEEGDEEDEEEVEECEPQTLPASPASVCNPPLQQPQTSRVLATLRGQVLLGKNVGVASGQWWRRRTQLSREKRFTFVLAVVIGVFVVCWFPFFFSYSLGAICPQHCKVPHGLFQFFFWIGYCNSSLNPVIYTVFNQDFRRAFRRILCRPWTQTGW
T1 sequence (P22909 whole entry): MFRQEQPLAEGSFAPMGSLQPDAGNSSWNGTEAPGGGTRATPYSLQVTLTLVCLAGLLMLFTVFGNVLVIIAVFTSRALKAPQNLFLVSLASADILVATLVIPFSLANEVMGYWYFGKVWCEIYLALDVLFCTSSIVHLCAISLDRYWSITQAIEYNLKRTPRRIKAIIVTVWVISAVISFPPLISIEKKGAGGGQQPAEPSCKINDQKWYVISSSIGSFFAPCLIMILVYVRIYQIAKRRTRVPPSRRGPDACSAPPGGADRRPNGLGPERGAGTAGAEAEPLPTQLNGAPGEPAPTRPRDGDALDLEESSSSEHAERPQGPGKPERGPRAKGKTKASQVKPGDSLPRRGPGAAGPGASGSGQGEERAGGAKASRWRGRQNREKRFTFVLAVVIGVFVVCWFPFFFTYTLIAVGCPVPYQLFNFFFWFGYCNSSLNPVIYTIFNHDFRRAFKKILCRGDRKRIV

Rattus norvegicus [2] = assay: Blood pressure lowering activity in spontaneously hypertensive rats (SHR) after 1 hour of administration (iv) of dose of 1.0 mg/kg; Did not last more than 1/2 hr […]; format: functional, organism-based; parameters: dose 1 mg/kg
Rattus norvegicus [3] = assay: Blood pressure lowering activity in spontaneously hypertensive rats (SHR) after 6 hours of administration (iv) of dose of 1.0 mg/kg; Did not last more than 1/2 hr […]; format: functional, organism-based; parameters: dose 1 mg/kg
[4] = target: T2, Adrenergic receptor alpha-1 (Rattus norvegicus, UniProt P15823+P23944+P43140); assay: Binding affinity against alpha-1 adrenergic receptor by measuring displacement of [3H]prazosin from rat brain cortex membranes (in vitro).; format: cell membranes, Membrane
T2 sequence (P15823 whole entry): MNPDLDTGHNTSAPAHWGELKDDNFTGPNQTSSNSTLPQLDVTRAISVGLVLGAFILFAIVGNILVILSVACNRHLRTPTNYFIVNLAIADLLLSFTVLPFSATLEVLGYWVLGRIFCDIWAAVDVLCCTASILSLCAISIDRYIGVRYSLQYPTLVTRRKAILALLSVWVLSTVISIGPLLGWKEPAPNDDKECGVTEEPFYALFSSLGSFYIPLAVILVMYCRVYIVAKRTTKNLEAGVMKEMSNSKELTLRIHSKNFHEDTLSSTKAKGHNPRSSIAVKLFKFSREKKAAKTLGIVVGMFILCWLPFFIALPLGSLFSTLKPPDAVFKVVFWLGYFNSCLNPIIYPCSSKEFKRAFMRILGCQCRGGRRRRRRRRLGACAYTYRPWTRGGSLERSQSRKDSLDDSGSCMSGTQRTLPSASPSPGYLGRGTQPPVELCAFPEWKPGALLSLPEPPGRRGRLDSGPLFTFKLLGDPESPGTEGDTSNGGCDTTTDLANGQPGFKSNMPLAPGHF
T2 sequence (P23944 whole entry): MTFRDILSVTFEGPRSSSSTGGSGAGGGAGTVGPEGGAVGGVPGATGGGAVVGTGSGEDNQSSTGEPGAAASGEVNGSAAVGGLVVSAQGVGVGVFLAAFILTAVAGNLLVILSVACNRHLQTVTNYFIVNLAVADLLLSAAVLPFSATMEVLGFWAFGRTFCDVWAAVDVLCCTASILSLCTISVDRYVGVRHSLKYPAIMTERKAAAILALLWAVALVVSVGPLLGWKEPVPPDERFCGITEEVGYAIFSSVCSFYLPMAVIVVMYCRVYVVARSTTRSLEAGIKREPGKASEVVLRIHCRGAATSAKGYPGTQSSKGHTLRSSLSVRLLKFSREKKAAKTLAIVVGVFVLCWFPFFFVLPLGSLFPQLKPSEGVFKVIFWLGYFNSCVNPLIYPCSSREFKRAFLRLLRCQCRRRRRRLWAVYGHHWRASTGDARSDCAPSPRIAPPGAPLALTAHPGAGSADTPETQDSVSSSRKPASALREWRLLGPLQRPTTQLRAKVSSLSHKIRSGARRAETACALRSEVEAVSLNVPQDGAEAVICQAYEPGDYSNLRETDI
T2 sequence (P43140 whole entry): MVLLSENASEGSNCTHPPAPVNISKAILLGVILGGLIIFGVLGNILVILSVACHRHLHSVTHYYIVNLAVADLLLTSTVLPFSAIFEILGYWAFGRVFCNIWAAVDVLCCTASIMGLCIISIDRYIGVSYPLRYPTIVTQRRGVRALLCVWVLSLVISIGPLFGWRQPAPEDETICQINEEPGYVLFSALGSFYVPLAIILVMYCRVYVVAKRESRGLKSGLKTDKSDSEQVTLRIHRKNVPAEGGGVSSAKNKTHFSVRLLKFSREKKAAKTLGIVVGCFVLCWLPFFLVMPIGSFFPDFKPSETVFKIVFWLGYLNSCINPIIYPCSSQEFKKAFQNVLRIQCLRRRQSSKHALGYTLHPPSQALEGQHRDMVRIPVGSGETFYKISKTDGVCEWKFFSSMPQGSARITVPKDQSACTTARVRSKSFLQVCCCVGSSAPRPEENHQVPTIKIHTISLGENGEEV

Rattus norvegicus [5] = assay: Blood pressure lowering activity in spontaneously hypertensive rats (SHR) after 1 hour of administration (iv) of dose of 0.5 mg/kg […]; format: functional
Rattus norvegicus [6] = assay: Blood pressure lowering activity in spontaneously hypertensive rats (SHR) after 6 hours of administration (iv) of dose of 0.5 mg/kg […]; format: functional
Rattus norvegicus [7] = assay: Blood pressure lowering activity in spontaneously hypertensive rats (SHR) after 6 hours of administration (iv) of dose of 4.0 mg/kg; Did not last more than 1/2 hr […]; format: functional, organism-based; parameters: dose 4 mg/kg
Rattus norvegicus [8] = assay: Blood pressure lowering activity in spontaneously hypertensive rats (SHR) after 1 hour of administration (iv) of dose of 4.0 mg/kg; Did not last more than 1/2 hr […]; format: functional, organism-based; parameters: dose 4 mg/kg
Rattus norvegicus [9] = assay: Blood pressure lowering activity in spontaneously hypertensive rats (SHR) after 6 hours of administration (iv) of dose of 0.5 mg/kg; Did not last more than 1/2 hr […]; format: functional, organism-based; parameters: dose 0.5 mg/kg
Rattus norvegicus [10] = assay: Blood pressure lowering activity in spontaneously hypertensive rats (SHR) after 1 hour of administration (iv) of dose of 4.0 mg/kg […]; format: functional

SMILES	Ki [1]	Ki [4]	MBP (Rattus norvegicus [7])	MBP (Rattus norvegicus [8])	also measured
COC1=Nc2ccccc2C2=NCC(CN3CCN(c4ccccc4)CC3)N12 (configuration not stated)	952 nM	1.35 nM	–	–	MBP (Rattus norvegicus [2]): inactive; MBP (Rattus norvegicus [3]): inactive
COc1ccccc1N1CCN(CC2CN3C(=O)N(C)c4ccccc4C3=N2)CC1 (configuration not stated)	1740 nM	0.37 nM	–	–	MBP (Rattus norvegicus [5]): -38.4 mmHg; MBP (Rattus norvegicus [6]): -28.4 mmHg
O=C1Nc2ccccc2C2=NC(CN3CCN(c4ccccn4)CC3)CN12 (configuration not stated)	–	95.9 nM	inactive	inactive	–
COc1ccc(N2CCN(CC3CN=C4c5ccccc5NC(=O)N43)CC2)cc1 (configuration not stated)	–	> 50 nM	inactive	inactive	–
COc1cccc(N2CCN(CC3CN=C4c5ccccc5N=C(SC)N43)CC2)c1 (configuration not stated)	8356 nM	48.8 nM	–	–	MBP (Rattus norvegicus [2]): inactive; MBP (Rattus norvegicus [3]): inactive
CSC1=Nc2ccccc2C2=NCC(CN3CCN(c4ccccc4)CC3)N12 (configuration not stated)	–	> 10 nM	–	–	MBP (Rattus norvegicus [2]): inactive; MBP (Rattus norvegicus [3]): inactive
O=C1Nc2ccccc2C2=NC(CN3CCC4(CCCCC4)CC3)CN12 (configuration not stated)	–	251.2 nM	inactive	inactive	–
COc1cccc(N2CCN(CC3CN=C4c5ccccc5N(C)C(=O)N43)CC2)c1 (configuration not stated)	–	19.4 nM	inactive	inactive	–
O=C1Nc2ccccc2C2=NCC(CN3CCN(c4ccccc4Cl)CC3)N12 (configuration not stated)	387 nM	0.58 nM	–	–	MBP (Rattus norvegicus [5]): -14.6 mmHg; MBP (Rattus norvegicus [6]): -15 mmHg
CSC1=Nc2ccccc2C2=NCC(CN3CCN(c4ccccc4Cl)CC3)N12 (configuration not stated)	223 nM	0.34 nM	–	–	MBP (Rattus norvegicus [2]): inactive; MBP (Rattus norvegicus [3]): inactive
COC1=Nc2ccccc2C2=NCC(CN3CCN(c4ccccc4OC)CC3)N12 (configuration not stated)	472 nM	0.07 nM	–	–	MBP (Rattus norvegicus [5]): -17.2 mmHg; MBP (Rattus norvegicus [9]): inactive
COC1=Nc2ccccc2C2=NCC(CN3CCN(c4ccc(OC)cc4)CC3)N12 (configuration not stated)	–	> 100 nM	inactive	inactive	–
COc1ccc(N2CCN(CC3CN=C4c5ccccc5N=C(SC)N43)CC2)cc1 (configuration not stated)	–	> 100 nM	–	–	MBP (Rattus norvegicus [2]): inactive; MBP (Rattus norvegicus [3]): inactive
O=C1Nc2ccccc2C2=NCC(CN3CCN(c4ccccc4)CC3)N12 (configuration not stated)	962 nM	1.7 nM	–	–	–
O=C1Nc2ccccc2C2=NC(CNC3CCN(Cc4ccccc4)CC3)CN12 (configuration not stated)	–	586 nM	inactive	inactive	–
O=C1Nc2ccccc2C2=NC(CN3CCC(Cc4ccccc4)CC3)CN12 (configuration not stated)	5011 nM	35.8 nM	inactive	–	MBP (Rattus norvegicus [10]): -30.6 mmHg
COC1=Nc2ccccc2C2=NCC(CN3CCN(c4cccc(OC)c4)CC3)N12 (configuration not stated)	–	> 100 nM	inactive	inactive	–
COc1ccccc1N1CCN(CC2CN=C3c4ccccc4N(C)C(=O)N32)CC1 (configuration not stated)	1419 nM	0.36 nM	–	–	MBP (Rattus norvegicus [5]): -32.5 mmHg; MBP (Rattus norvegicus [6]): -28.3 mmHg
O=C1Nc2ccccc2C2=NC(CN3CCN(c4ccc(F)cc4)CC3)CN12 (configuration not stated)	391 nM	14.4 nM	–	inactive	–
COc1cccc(N2CCN(CC3CN=C4c5ccccc5NC(=O)N43)CC2)c1 (configuration not stated)	302 nM	5.76 nM	inactive	inactive	–
CN1C(=O)N2CC(CN3CCN(c4ccccc4Cl)CC3)N=C2c2ccccc21 (configuration not stated)	473 nM	0.68 nM	–	–	MBP (Rattus norvegicus [5]): -27.5 mmHg; MBP (Rattus norvegicus [6]): -22.5 mmHg
